Data: PubChem BioAssay AID248 (DTP/NCI, 2004)
Where “and” joins values, the source holds several entries; their conditions need not be identical. Identical values can stand only once. Toxic doses and inconclusive results are not listed. Rule as the data show it: active = T/C of 150% or more; inactive = T/C below 125%.

Tested on: L1210 leukemia ip in BDF1 mice, survival T/C
Assay: NCI In Vivo Anticancer Drug Screen. Data for tumor model L1210 Leukemia (intraperitoneal) in B6D2F1 (BDF1) mice
Conditions: endpoint: mean survival time, higher = longer survival
Summary of the method: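 Antitumor effect is assessed in tumor-bearing animals. Survival in the compound arm is compared with a vehicle-dosed control arm and expressed as their quotient.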

[1] = dose: 50.0 mg/kg/injection, schedule: Q01DX001 (ip), vehicle: carboxymethylcellulose (CMC)
[2] = dose: 100.0 mg/kg/injection, schedule: Q01DX001 (ip), vehicle: carboxymethylcellulose (CMC)
[3] = dose: 100.0 mg/kg/injection, schedule: Q04DX003 (ip), vehicle: carboxymethylcellulose (CMC)
[4] = dose: 200.0 mg/kg/injection, schedule: Q01DX001 (ip), vehicle: carboxymethylcellulose (CMC)
[5] = dose: 100.0 mg/kg/injection, schedule: Q01DX009 (ip), vehicle: saline
[6] = dose: 100.0 mg/kg/injection, schedule: Q04DX003 (ip), vehicle: saline
[7] = dose: 200.0 mg/kg/injection, schedule: Q01DX009 (ip), vehicle: saline
[8] = dose: 200.0 mg/kg/injection, schedule: Q04DX003 (ip), vehicle: saline
[9] = dose: 400.0 mg/kg/injection, schedule: Q01DX009 (ip), vehicle: saline
[10] = dose: 400.0 mg/kg/injection, schedule: Q04DX003 (ip), vehicle: saline
[11] = dose: 100.0 mg/kg/injection, schedule: Q01DX009 (ip), vehicle: Klucel (hydroxypropylcellulose) (HPC)
[12] = dose: 200.0 mg/kg/injection, schedule: Q01DX009 (ip), vehicle: Klucel (hydroxypropylcellulose) (HPC)
[13] = dose: 100.0 mg/kg/injection, schedule: Q01DX001 (ip), vehicle: saline with Tween-80
[14] = dose: 100.0 mg/kg/injection, schedule: Q04DX003 (ip), vehicle: Klucel (hydroxypropylcellulose) (HPC)
[15] = dose: 200.0 mg/kg/injection, schedule: Q04DX003 (ip), vehicle: Klucel (hydroxypropylcellulose) (HPC)
[16] = dose: 400.0 mg/kg/injection, schedule: Q04DX003 (ip), vehicle: Klucel (hydroxypropylcellulose) (HPC)
[17] = dose: 100.0 mg/kg/injection, schedule: Q04DX003 (ip), vehicle: saline with Tween-80
[18] = dose: 400.0 mg/kg/injection, schedule: Q01DX001 (ip), vehicle: carboxymethylcellulose (CMC)
[19] = dose: 100.0 mg/kg/injection, schedule: Q01DX001 (ip), vehicle: Klucel (hydroxypropylcellulose) (HPC)
[20] = dose: 200.0 mg/kg/injection, schedule: Q01DX001 (ip), vehicle: Klucel (hydroxypropylcellulose) (HPC)
[21] = dose: 400.0 mg/kg/injection, schedule: Q01DX001 (ip), vehicle: Klucel (hydroxypropylcellulose) (HPC)

Measured: T/C

O=C(COc1ccc(Cl)cc1Cl)OC(=O)COc1ccc(Cl)cc1Cl
inactive: dose: 12.5 mg/kg/injection, schedule: Q01DX009 (ip), vehicle: carboxymethylcellulose (CMC) 100 % of control and 106 % of control | dose: 25.0 mg/kg/injection, schedule: Q01DX009 (ip), vehicle: carboxymethylcellulose (CMC) 102 % of control and 103 % of control | [1] 92 % of control | dose: 50.0 mg/kg/injection, schedule: Q04DX003 (ip), vehicle: carboxymethylcellulose (CMC) 92 % of control | [2] 97 % of control | dose: 100.0 mg/kg/injection, schedule: Q01DX009 (ip), vehicle: carboxymethylcellulose (CMC) 94 % of control | dose: 100.0 mg/kg/injection, schedule: Q04DX002 (ip), vehicle: Klucel (hydroxypropylcellulose) (HPC) 95 % of control | dose: 100.0 mg/kg/injection, schedule: Q04DX002 (ip), vehicle: carboxymethylcellulose (CMC) 97 % of control and 100 % of control | [3] 94 % of control | [4] 89 % of control | dose: 200.0 mg/kg/injection, schedule: Q04DX002 (ip), vehicle: Klucel (hydroxypropylcellulose) (HPC) 95 % of control | dose: 200.0 mg/kg/injection, schedule: Q04DX002 (ip), vehicle: carboxymethylcellulose (CMC) 97 % of control and 98 % of control | dose: 400.0 mg/kg/injection, schedule: Q04DX002 (ip), vehicle: Klucel (hydroxypropylcellulose) (HPC) 98 % of control

O=C(Cn1cc(F)c(=O)[nH]c1=O)c1ccco1
inactive: [5] 90 % of control | [6] 96 % of control | [7] 91 % of control | [8] 93 % of control | [9] 88 % of control | [10] 88 % of control

COC(=O)c1cc(NC(=O)Nc2cccc(C(C)=O)c2)cc(C(=O)OC)c1
inactive: [11] 98 % of control | [12] 102 % of control | dose: 400.0 mg/kg/injection, schedule: Q01DX009 (ip), vehicle: Klucel (hydroxypropylcellulose) (HPC) 93 % of control

CN(CCS(=O)(=O)O)/N=C/c1ccc2c(c1)OCO2
inactive: dose: 25.0 mg/kg/injection, schedule: Q01DX009 (ip), vehicle: alcohol 112 % of control | dose: 50.0 mg/kg/injection, schedule: Q01DX009 (ip), vehicle: alcohol 102 % of control | [13] 92 % of control | dose: 100.0 mg/kg/injection, schedule: Q01DX009 (ip), vehicle: alcohol 101 % of control | dose: 150.0 mg/kg/injection, schedule: Q01DX009 (ip), vehicle: Klucel (hydroxypropylcellulose) (HPC) 94 % of control | dose: 225.0 mg/kg/injection, schedule: Q01DX009 (ip), vehicle: Klucel (hydroxypropylcellulose) (HPC) 97 % of control

CN1COC(OC(C)(C)C)C(C)(C)C1 (centres undefined)
inactive: dose: 100.0 mg/kg/injection, schedule: Q01DX001 (ip), vehicle: saline sonified 90 % of control | dose: 400.0 mg/kg/injection, schedule: Q01DX001 (ip), vehicle: saline sonified 95 % of control

CCCCCCCCCCCCCCC(F)C(=O)OC (centres undefined)
inactive: dose: 100.0 mg/kg/injection, schedule: Q01DX009 (sc), vehicle: olive oil, sesame oil, peanut oil 94 % of control | dose: 100.0 mg/kg/injection, schedule: Q04DX003 (sc), vehicle: olive oil, sesame oil, peanut oil 102 % of control | dose: 200.0 mg/kg/injection, schedule: Q04DX003 (sc), vehicle: olive oil, sesame oil, peanut oil 113 % of control | dose: 400.0 mg/kg/injection, schedule: Q04DX003 (sc), vehicle: olive oil, sesame oil, peanut oil 109 % of control

O=[N+]([O-])c1cc(C(F)(F)F)ccc1Oc1ccc(Cl)cc1
inactive: [14] 96 % of control | [15] 103 % of control | [16] 96 % of control

S=c1nc[nH]c2ncccc12
inactive: [14] 104 % of control | [15] 100 % of control | [16] 97 % of control

OC1(Cc2nccc3ccccc23)CCN(Cc2ccccc2)CC1
inactive: [3] 89 % of control | dose: 200.0 mg/kg/injection, schedule: Q04DX003 (ip), vehicle: carboxymethylcellulose (CMC) 98 % of control

O=C(NCCNC(=O)c1cccc([N+](=O)[O-])c1O)c1cccc([N+](=O)[O-])c1O
inactive: [17] 96 % of control | dose: 200.0 mg/kg/injection, schedule: Q04DX003 (ip), vehicle: saline with Tween-80 95 % of control | dose: 400.0 mg/kg/injection, schedule: Q04DX003 (ip), vehicle: saline with Tween-80 90 % of control

CC(C)([CH2][Sn]([CH2]C(C)(C)c1ccccc1)([CH2]C(C)(C)c1ccccc1)[CH2]C(C)(C)c1ccccc1)c1ccccc1
inactive: dose: 5.0 mg/kg/injection, schedule: Q01DX009 (sc), vehicle: olive oil, sesame oil, peanut oil 102 % of control | dose: 5.0 mg/kg/injection, schedule: Q04DX003 (sc), vehicle: olive oil, sesame oil, peanut oil 92 % of control | dose: 10.0 mg/kg/injection, schedule: Q01DX009 (sc), vehicle: olive oil, sesame oil, peanut oil 107 % of control | dose: 10.0 mg/kg/injection, schedule: Q04DX003 (sc), vehicle: olive oil, sesame oil, peanut oil 92 % of control | dose: 20.0 mg/kg/injection, schedule: Q01DX009 (sc), vehicle: olive oil, sesame oil, peanut oil 102 % of control | dose: 20.0 mg/kg/injection, schedule: Q04DX003 (sc), vehicle: olive oil, sesame oil, peanut oil 92 % of control

CC(C)CC(C)NCC(C)OC(=O)c1ccc(N)cc1 (centres undefined)
inactive: dose: 75.0 mg/kg/injection, schedule: Q01DX001 (ip), vehicle: other 110 % of control

COC(=O)C1(Br)CCC1(Br)C(=O)OC (centres undefined)
inactive: [5] 100 % of control | [6] 93 % of control | [7] 100 % of control | [8] 100 % of control | [9] 98 % of control | [10] 102 % of control

Cc1ccc(C(=O)N2CCCCC2)c[n+]1C
inactive: dose: 100.0 mg/kg/injection, schedule: Q01DX001 (ip), vehicle: saline 104 % of control | dose: 200.0 mg/kg/injection, schedule: Q01DX001 (ip), vehicle: saline 100 % of control | dose: 400.0 mg/kg/injection, schedule: Q01DX001 (ip), vehicle: saline 105 % of control

Nc1cc2c(cc1Br)-c1ccccc1/C2=N\O
inactive: [2] 102 % of control | [4] 102 % of control | [18] 100 % of control

O=C(COc1ccccc1Cl)Nc1cccnc1
inactive: [19] 113 % of control | [20] 103 % of control | [21] 103 % of control

O=S(=O)(O)OC1CCCC1S(=O)(=O)O (centres undefined)
inactive: [1] 96 % of control | [2] 107 % of control | [4] 107 % of control | [18] 86 % of control

Cc1cccc(C)c1NC(=O)Nc1ccc(CCO)cc1
inactive: [11] 97 % of control | [12] 98 % of control

CSC(=S)N/N=C(\C)c1ccccn1
inactive: [17] 107 % of control

CN(C=O)C(=S)[S][Sb]([S]C(=S)Nc1ccc(S(=O)(=O)Nc2ccc(N=Nc3ccccc3)cc2)cc1)[S]C(=S)N(C)C=O
inactive: dose: 100.0 mg/kg/injection, schedule: Q01DX001 (ip), vehicle: steriod suspending solution 106 % of control | dose: 200.0 mg/kg/injection, schedule: Q01DX001 (ip), vehicle: steriod suspending solution 90 % of control

O=c1cc(NCCc2ccccc2)[nH]c(=O)[nH]1
inactive: [19] 93 % of control | [20] 95 % of control | [21] 105 % of control

C=CC[N+](C)(C)C
inactive: dose: 75.0 mg/kg/injection, schedule: Q01DX001 (ip), vehicle: saline 101 % of control

CC(=O)OC1CCC2C3C(C)C4(O)C=CCCC(C)(O4)C3CCC12C (centres undefined)
inactive: dose: 50.0 mg/kg/injection, schedule: Q01DX001 (sc), vehicle: steriod suspending solution 100 % of control | dose: 100.0 mg/kg/injection, schedule: Q01DX001 (sc), vehicle: steriod suspending solution 89 % of control | dose: 200.0 mg/kg/injection, schedule: Q01DX001 (sc), vehicle: steriod suspending solution 96 % of control | dose: 400.0 mg/kg/injection, schedule: Q01DX001 (sc), vehicle: steriod suspending solution 105 % of control

CCOC(=O)Nc1cc(NCCCCc2ccccc2)c(N)c(N)n1
inactive: [13] 101 % of control | dose: 200.0 mg/kg/injection, schedule: Q01DX001 (ip), vehicle: saline with Tween-80 102 % of control

CC(=O)Nc1ccc(NC(=O)Nc2ccc(C)cc2[N+](=O)[O-])cc1
inactive: [14] 92 % of control | [15] 86 % of control | [16] 94 % of control
